Experiment [1] concerns HEK293. The experiment can be described thus: IC50 for inhibition of ZIKV NS1 production. The protocol: (§1)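 HEK293 cells in 1536-well plates were pre-treated with compound for 1 h, infected with ZIKV (MOI 1) for 24 h, and NS1 antigen (intra- plus extracellular) was measured by TR-FRET. Confirmation used 11-point 1:3 dilutions, and IC50 and maximal inhibition were fitted in GraphPad Prism.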

Experiment [2] deals with HEK293. The experiment can be described thus: cytotoxicity IC50 (ATP content, uninfected cells); higher = less cytotoxic. Particulars: infection: none.
The test system of experiment [3] is HEK293. The experiment can be described thus: maximal inhibition of ZIKV NS1 production (% inhibition); higher = stronger antiviral effect. The protocol:
as §1

The values below come from the supplement of paper PMC8498969.

Bounds are passed on as bounds.

For `CN1CCN(Cc2ccc(NC(=O)Nc3ccc(Oc4cc(NC(=O)C5CC5)ncn4)cc3)cc2C(F)(F)F)CC1`, in experiment [1], the IC50 stood at 2.4 µM. The “cytotoxicity IC50” value in experiment [2] is more than 100 µM. In addition, the maximal inhibition in experiment [3] is 104.
The matching figures for `CCc1ccc(OCc2ccccc2C(=O)Nc2ccc3nc(C)cc(N)c3c2)cc1`: 14 µM, 11 µM and 104.
On to `CC[C@]1(O)C[C@@H]2CN(CCc3c([nH]c4ccccc34)[C@@](C(=O)OC)(c3cc4c(cc3OC)N(C)[C@H]3[C@@](O)(C(=O)OC)[C@H](OC(C)=O)[C@]5(CC)C=CCN6CC[C@]43[C@@H]65)C2)C1`, for which the IC50 in experiment [1] turned out to be 5.6 µM. The “cytotoxicity IC50” value in experiment [2] was more than 100 µM. In experiment [3], the maximal inhibition worked out at 73.
The matching figures for `O=C1NCCN1CCN1CCC(c2cn(-c3ccc(F)cc3)c3ccc(Cl)cc23)CC1`: 7.4 µM, 6.5 µM and 99.
The matching figures for `CC(C)c1ccc(Cn2ccc3c4c(N)nc(NC5CC5)nc4ccc32)cc1`: 3 µM, 78 µM and 106.
In the same order, the values of `CSc1cccc(Nc2ncc3cc(-c4c(Cl)cccc4Cl)c(=O)n(C)c3n2)c1` are 8.4 µM, 6.6 µM and 98.
With `CC(C)(C)CC(C)(C)c1ccc(OCCOCC[N+](C)(C)Cc2ccccc2)cc1`, the IC50 in experiment [1] came out at 9 µM. Moreover, the maximal inhibition in experiment [3] was found to be 103.
For `CS[C@H]1SC[C@H]2C(=O)N(C)[C@@H](C(C)C)C(=O)OC[C@@H](NC(=O)c3cnc4ccccc4n3)C(=O)N[C@@H](C)C(=O)N(C)[C@@H]1C(=O)N(C)[C@@H](C(C)C)C(=O)OC[C@@H](NC(=O)c1cnc3ccccc3n1)C(=O)N[C@@H](C)C(=O)N2C`, the IC50 in experiment [1] came to 0.017 µM. In addition, the “cytotoxicity IC50” value in experiment [2] is more than 100 µM. The maximal inhibition in experiment [3] came to 98.
The matching figures for `Oc1ccc(-c2ccc(-c3cc(Nc4cccc(CNC5CC5)c4)n[nH]3)cc2)c(O)c1`: 1.5 µM, 27 µM and 108.
In the same order, the values of `COC(=O)Nc1nc2cc(C(=O)c3cccs3)ccc2[nH]1` are 1.1 µM, more than 100 µM and 68.
In the same order, the values of `COc1ccc(-c2ccc3ncc4c(c3c2)n(-c2ccc(N3CCNCC3)c(C(F)(F)F)c2)c(=O)n4C)cn1` are 1.6 µM, 20 µM and 102.
In experiment [1], `COc1cc2nc(N3CCN(C(=O)c4ccco4)CC3)nc(N)c2cc1OC` registered an IC50 of 18 µM. Besides, the “cytotoxicity IC50” value in experiment [2] was found to be 40 µM. In experiment [3], the maximal inhibition came to 104.
In experiment [1], `O=C(NC1CCNCC1)c1n[nH]cc1NC(=O)c1c(Cl)cccc1Cl` gave a half-maximal inhibitory concentration (IC50) of 3.1 µM. In addition, the “cytotoxicity IC50” value in experiment [2] is 22 µM. Also, the maximal inhibition in experiment [3] came to 91.
In the same order, the values of `COc1cc(NS(C)(=O)=O)ccc1Nc1c2ccccc2nc2ccccc12` are 1.4 µM, 70 µM and 105.
In the same order, the values of `CC[C@]1(O)C[C@@H]2CN(CCc3c([nH]c4ccccc34)[C@@](C(=O)OC)(c3cc4c(cc3OC)N(C)[C@H]3[C@@](O)(C(N)=O)[C@H](O)[C@]5(CC)C=CCN6CC[C@]43[C@@H]65)C2)C1` are 0.66 µM, more than 100 µM and 66.
On to `COc1cccc(-c2ccc(NC(=O)C3=C(C(=O)O)CCC3)c(F)c2)c1`, for which, in experiment [1], the IC50 amounted to 4 µM. In experiment [2], the “cytotoxicity IC50” value stood at 1.9 µM. The molecule further had a maximal inhibition in experiment [3] of 107.
In the same order, the values of `CN(C)C(=S)SSC(=S)N(C)C` are 0.51 µM, 0.18 µM and 99.
As to `CCC(=O)N1CCN(c2ccc(-n3c(=O)ccc4cnc5ccc(-c6cnc7ccccc7c6)cc5c43)cc2C(F)(F)F)CC1`, in experiment [2], the “cytotoxicity IC50” value was found to be 1.5 µM.
The molecule `CC(C)c1nn(-c2c(Cl)cccc2Cl)c2nc(Cc3ccc(OCCO)cc3)[nH]c(=O)c12` yielded an IC50 in experiment [1] of 0.27 µM. Besides, the “cytotoxicity IC50” value in experiment [2] was more than 100 µM. Also, the maximal inhibition in experiment [3] was found to be 91.
In the same order, the values of `Oc1cccc(-c2nc(N3CCOCC3)c3oc4ncccc4c3n2)c1` are 1.6 µM, 0.94 µM and 92.
The matching figures for `COc1ccc(-c2cc3c(C)nc(N)nc3n([C@H]3CC[C@H](OCCO)CC3)c2=O)cn1`: 1.5 µM, 0.47 µM and 78.
As for `C/C=C(\C)C(=O)N[C@@H](c1ccccc1)[C@@H](O)C(=O)O[C@H]1C[C@@]2(O)[C@@H](OC(=O)c3ccccc3)[C@@H]3[C@]4(OC(C)=O)CO[C@@H]4C[C@H](O)[C@@]3(C)C(=O)[C@H](OC(C)=O)C(=C1C)C2(C)C`, the IC50 in experiment [1] stood at 0.22 µM. In addition, the “cytotoxicity IC50” value in experiment [2] was more than 100 µM. Further, the maximal inhibition in experiment [3] was 67.
For `CO[C@@]12[C@H](COC(N)=O)C3=C(C(=O)C(C)=C(N)C3=O)N1C[C@@H]1N[C@@H]12`, the half-inhibitory concentration (IC50) in experiment [1] was 2.7 µM. The “cytotoxicity IC50” value in experiment [2] stood at 73 µM. The molecule further showed a maximal inhibition in experiment [3] of 97.
The matching figures for `CCCCCC[C@H]1C(=O)O[C@H](C)[C@H](NC(=O)c2cccc(NC=O)c2O)C(=O)O[C@@H](C)[C@@H]1OC(=O)CC(C)C`: 0.012 µM, 0.0055 µM and 94.
In experiment [1], `CCCOc1ccc2[nH]c(NC(=O)OC)nc2c1` displayed an IC50 of 4.9 µM. Moreover, in experiment [2], the “cytotoxicity IC50” value worked out at 86 µM. Moreover, in experiment [3], the maximal inhibition turned out to be 67.
The matching figures for `CCCCc1ccc2[nH]c(NC(=O)OC)nc2c1`: 0.69 µM, 3 µM and 80.
In the same order, the values of `CC(C)C[C@H](NC(=O)CNC(=O)c1cc(Cl)ccc1Cl)B(O)O` are 0.23 µM, 2.1 µM and 102.
`COc1cc2nc(-c3cc(F)ccc3O)nc(N[C@@H]3CNC[C@H]3C(C)(C)O)c2cc1OC` came in with an IC50 in experiment [1] of 12 µM. Moreover, the “cytotoxicity IC50” value in experiment [2] turned out to be 45 µM. The maximal inhibition in experiment [3] was determined as 98.
Molecule `N=C(N)NN=C(/C=C/c1ccc([N+](=O)[O-])o1)/C=C/c1ccc([N+](=O)[O-])o1` showed an IC50 in experiment [1] of 3.9 µM. In experiment [2], the “cytotoxicity IC50” value was 3.9 µM. Further, in experiment [3], the maximal inhibition worked out at 102.
In the case of `COc1c(C)c2c(c(O)c1C/C=C(\C)CCC(=O)OCCN1CCOCC1)C(=O)OC2`, the IC50 in experiment [1] came out at 0.53 µM. In addition, in experiment [2], the “cytotoxicity IC50” value is more than 100 µM. The maximal inhibition in experiment [3] amounted to 105.
`C[C@@H]1O[C@@H](O[C@H]2C[C@@H](O)[C@]3(CO)[C@H]4[C@H](O)C[C@]5(C)[C@@H]([C@@H]6COC(=O)C6)CC[C@]5(O)[C@@H]4CC[C@]3(O)C2)[C@H](O)[C@H](O)[C@H]1O` had an IC50 in experiment [1] of 1.5 µM. For the same molecule, in experiment [2], the “cytotoxicity IC50” value amounted to 0.85 µM. Moreover, the maximal inhibition in experiment [3] turned out to be 103.
The matching figures for `CCCCCC(=O)O[C@]1(C(C)=O)CC[C@H]2[C@@H]3CCC4=CC(=O)CC[C@]4(C)[C@H]3CC[C@@]21C`: 50 µM, 7.9 µM and 99.
The matching figures for `FC(F)c1nc2ccccc2n1-c1nc(N2CCOCC2)nc(N2CCOCC2)n1`: 3.9 µM, 60 µM and 85.
With `CN(C)CCN(C)C(=O)c1ccc(NC(=O)Nc2ccc(-c3nc(N4CCOCC4)c4ccn(CC(F)(F)F)c4n3)cc2)cc1`, the IC50 in experiment [1] stood at 2.9 µM. Moreover, the “cytotoxicity IC50” value in experiment [2] is 3.4 µM. Also, in experiment [3], the maximal inhibition was 76.
In the same order, the values of `CC(C)n1nc(-c2cc3cc(O)ccc3[nH]2)c2c(N)ncnc21` are 16 µM, 77 µM and 78.
In the same order, the values of `CC(=O)Nc1ccc([C@H](C)C(=O)Nc2ncc(C(C)C)s2)cc1` are 7.4 µM, more than 100 µM and 90.
In the same order, the values of `CC(C)COCC(CN(Cc1ccccc1)c1ccccc1)N1CCCC1` (centres undefined) are 43 µM, more than 100 µM and 55.
With `COc1cc([C@@H]2c3cc4c(cc3[C@@H](O[C@@H]3O[C@@H]5CO[C@@H](c6cccs6)O[C@H]5[C@H](O)[C@H]3O)[C@H]3COC(=O)[C@H]23)OCO4)cc(OC)c1O`, the IC50 in experiment [1] came to 1.2 µM. Besides, the “cytotoxicity IC50” value in experiment [2] is more than 100 µM. For the same molecule, the maximal inhibition in experiment [3] came to 100.
In the same order, the values of `COc1cccc2c1C(=O)c1c(O)c3c(c(O)c1C2=O)C[C@@](O)(C(C)=O)C[C@@H]3O[C@H]1C[C@H](N)[C@H](O)[C@H](C)O1` are 0.54 µM, more than 100 µM and 66.
Consider `CC(C)C[C@H](NC(=O)[C@@H](NC(=O)c1cccc(-c2ccccc2)n1)[C@@H](C)O)B(O)O`, for which the IC50 in experiment [1] worked out at 0.059 µM. In experiment [2], the “cytotoxicity IC50” value came out at 0.3 µM. The same molecule gave a maximal inhibition in experiment [3] of 95.
`CCc1nc(N)nc(N)c1-c1ccc(Cl)cc1` displayed an IC50 in experiment [1] of 45 µM. In addition, the “cytotoxicity IC50” value in experiment [2] is 14 µM. In experiment [3], this molecule had a maximal inhibition of 88.
The matching figures for `CNC1CCC(N(Cc2cccc(-c3ccncc3)c2)C(=O)c2sc3ccccc3c2Cl)CC1` (centres undefined): 49 µM, more than 100 µM and 94.
The matching figures for `C=C1C(=O)O[C@H]2[C@H]1CC/C(C)=C/CC[C@@]1(C)O[C@@H]21`: 43 µM, 20 µM and 106.
Take `CCc1cnn2c(NCc3ccc[n+]([O-])c3)cc(N3CCCC[C@H]3CCO)nc12`: the “cytotoxicity IC50” value in experiment [2] is more than 100 µM. In experiment [3], this molecule gave a maximal inhibition of 90.
Consider `CC[C@@H]1C(=O)N(C)c2cnc(Nc3ccc(C(=O)NC4CCN(C)CC4)cc3OC)nc2N1C1CCCC1`, for which, in experiment [2], the “cytotoxicity IC50” value was more than 100 µM.

The term IC50 denotes the concentration that inhibits the measured activity by half.
